Earlier results as cited in patent publication US20240307482A1, “TOPICAL COMPOSITIONS” (Illustris Pharmaceuticals, Inc., priority 2019, published 2024).

Tested on: wrinkles
Conditions: formulations with 10% concentration acetyl hexapeptide; after 30 days of trial use

Substance: acetyl hexapeptide-3
- reduce the depth of wrinkles: up to 30%
